Data taken from PubChem BioAssay (NCI).
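In this assay, cells in 96-well plates receive the compound at five concentrations for 48 hours. Endpoints are linearly interpolated between the surrounding concentrations. At the GI50, growth is halved. At the TGI there is no net growth.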

Experiments:
Assay in all cases: NCI anticancer screen, dose series, 48 h
[1] = tested on: UO-31 renal
[2] = tested on: MDA-MB-231 breast
[3] = tested on: HS 578T breast
[4] = tested on: T-47D breast
[5] = tested on: SR leukemia
[6] = tested on: SNB-19 CNS
[7] = tested on: EKVX NSCLC
[8] = tested on: HOP-62 NSCLC
[9] = tested on: RPMI-8226 leukemia
[10] = tested on: HCT-116 colon
[11] = tested on: CCRF-CEM leukemia
[12] = tested on: SW-620 colon
[13] = tested on: HT29 colon
[14] = tested on: NCI-H522 lung
[15] = tested on: SNB-75 CNS
[16] = tested on: TK-10 renal
[17] = tested on: HOP-92 NSCLC
[18] = tested on: SK-MEL-5 melanoma
[19] = tested on: SK-OV-3 ovarian
[20] = tested on: COLO 205 colon
[21] = tested on: NCI-H23 lung
[22] = tested on: MOLT-4 leukemia
[23] = tested on: BT-549 breast
[24] = tested on: SN12C renal
[25] = tested on: OVCAR-8 ovarian
[26] = tested on: RXF 393 renal
[27] = tested on: SK-MEL-2 melanoma
[28] = tested on: HCC-2998 colon
[29] = tested on: OVCAR-3 ovarian
[30] = tested on: MDA-MB-435
[31] = tested on: SF-295 CNS
[32] = tested on: IGROV1 ovarian
[33] = tested on: HCT-15 colon
[34] = tested on: SF-268 CNS
[35] = tested on: UACC-257 melanoma
[36] = tested on: K-562 leukemia
[37] = tested on: LOX IMVI melanoma
[38] = tested on: OVCAR-5 ovarian
[39] = tested on: M14 melanoma
[40] = tested on: CAKI-1 renal
[41] = tested on: KM12 colon
[42] = tested on: NCI-H226 lung
[43] = tested on: MCF7 breast
[44] = tested on: HL-60(TB) leukemia
[45] = tested on: SK-MEL-28 melanoma
[46] = tested on: UACC-62 melanoma
[47] = tested on: 786-0 renal
[48] = tested on: MALME-3M melanoma
[49] = tested on: A498 renal
[50] = tested on: NCI-H460 lung
[51] = tested on: U251 CNS
[52] = tested on: A549 NSCLC
[53] = tested on: DU-145 prostate
[54] = tested on: OVCAR-4 ovarian
[55] = tested on: PC-3 prostate

SMILES: COc1cccc2c1C(=O)c1c(O)c3c(c(O)c1C2=O)C[C@@](O)(C(=O)CO)C[C@@H]3O[C@H]1C[C@H](N)[C@@H](O)[C@H](C)O1
- GI50 [1]: 866 nM
- TGI [1]: 5890 nM
- GI50 [2]: 595 nM
- TGI [2]: 12100 nM
- GI50 [3]: 257 nM
- TGI [3]: 3300 nM
- GI50 [4]: 128 nM
- TGI [4]: 3190 nM
- GI50 [5]: 13.7 nM
- TGI [5]: 1070 nM
- GI50 [6]: 127 nM
- TGI [6]: 21700 nM
- GI50 [7]: 1200 nM
- TGI [7]: 16100 nM
- GI50 [8]: 160 nM
- TGI [8]: 2370 nM
- GI50 [9]: 161 nM
- TGI [9]: 3610 nM
- GI50 [10]: 112 nM
- TGI [10]: 5170 nM
- GI50 [11]: 91.9 nM
- TGI [11]: 950 nM
- TGI [12]: 7610 nM
- TGI [13]: 7750 nM
- GI50 [14]: 101 nM
- TGI [14]: 890 nM
- GI50 [15]: 84 nM
- TGI [15]: 634 nM
- TGI [16]: 10500 nM
- GI50 [17]: 74.3 nM
- TGI [17]: 697 nM
- TGI [18]: 623 nM
- GI50 [19]: 318 nM
- TGI [19]: 31600 nM
- GI50 [20]: 313 nM
- TGI [20]: 1230 nM
- GI50 [21]: 122 nM
- TGI [21]: 953 nM
- GI50 [22]: 32.6 nM
- TGI [22]: 285 nM
- GI50 [23]: 128 nM
- TGI [23]: 474 nM
- GI50 [24]: 126 nM
- TGI [24]: 11900 nM
- GI50 [25]: 256 nM
- TGI [25]: 19500 nM
- GI50 [26]: 205 nM
- TGI [26]: 1020 nM
- GI50 [27]: 514 nM
- TGI [27]: 3090 nM
- GI50 [28]: 161 nM
- TGI [28]: 1290 nM
- GI50 [29]: 613 nM
- TGI [29]: 13400 nM
- GI50 [30]: 465 nM
- TGI [30]: 1290 nM
- GI50 [31]: 158 nM
- TGI [31]: 1540 nM
- GI50 [32]: 175 nM
- TGI [32]: 21200 nM
- GI50 [33]: 2990 nM
- TGI [33]: 50000 nM
- GI50 [34]: 196 nM
- TGI [34]: 2080 nM
- GI50 [35]: 431 nM
- TGI [35]: 1820 nM
- GI50 [36]: 147 nM
- TGI [36]: 5050 nM
- GI50 [37]: 82.6 nM
- TGI [37]: 2570 nM
- GI50 [38]: 1270 nM
- TGI [38]: 13000 nM
- GI50 [39]: 281 nM
- TGI [39]: 1160 nM
- GI50 [40]: 1320 nM
- TGI [40]: 30700 nM
- GI50 [41]: 502 nM
- TGI [41]: 18200 nM
- GI50 [42]: 68 nM
- TGI [42]: 222 nM
- GI50 [43]: 24.7 nM
- TGI [43]: 14000 nM
- GI50 [44]: 145 nM
- TGI [44]: 1010 nM
- GI50 [45]: 351 nM
- TGI [45]: 1350 nM
- GI50 [46]: 84.7 nM
- TGI [46]: 498 nM
- GI50 [47]: 123 nM
- TGI [47]: 1860 nM
- GI50 [48]: 145 nM
- TGI [48]: 718 nM
- GI50 [49]: 134 nM
- TGI [49]: 1060 nM
- GI50 [50]: 23.1 nM
- TGI [50]: 17100 nM
- TGI [51]: 16400 nM
- GI50 [52]: 50 nM
- TGI [52]: 1220 nM
- GI50 [53]: 159 nM
- TGI [53]: 5800 nM
- GI50 [54]: 546 nM
- TGI [54]: 5870 nM
- GI50 [55]: 551 nM
- TGI [55]: 5320 nM
